Measured values from patent US8604167B2, “CD133 epitopes” (ImmunoCellular Therapeutics, Ltd., priority 2009, dated 2013).

Tests used:
CD8+ T cells [1] = assay: Peptide-HLA-A2 dimer staining of CTL stimulated with peptide-pulsed DC; format: cell-based, human; conditions: for peptide dimer staining relative to background, in words: summary of Table 7
Procedure: (§1) HLA-A2 positive PBMC isolated by leukapheresis from two healthy human subjects were obtained from HemaCare Corporation (Van Nuys, Calif.). The PBMC from each subject were used to prepare CD8+ T cells and autologous dendritic cells for stimulation with immunogenic peptides. Following stimulation, the T cells were subjected to functional assays.
(§2) CD8+ T cells were prepared from each subject's PBMC by positive selection using CD8 MicroBeads (Miltenyi Biotec, Bergisch Gladbach, Germany), according to the manufacturer's instructions.
(§3) Autologous DC were prepared from adherent PBMC (2×10^6 cells/ml) cultured for 5 days in the presence of 500 IU/ml granulocyte macrophage colony-stimulating factor (Leucomax; Schering-Plough, Kenilworth, N.J.) and 500 IU/ml IL-4 (R&D Systems, Minneapolis, Minn.) in complete medium [RPMI 1640 supplemented with 10% heat-inactivated human AB serum, […] L-glutamine (Invitrogen) and antibiotics]. On day 5, DC maturation was induced by addition of 50 ng/ml TNF-α. On day 7, the mature DC were collected and pulsed with 20 μg/ml peptide for 4 hours at 20° C. Peptide-pulsed DC not used immediately were frozen for later use.
The peptide pulsed matured DC were diluted to 3×10^5 cells/mL in CTL complete medium and irradiated at 2800 Rads. The initial in vitro stimulation was performed at a DC:T cell ratio of 1:5 by plating 100 μL/well of each batch of DC into a 96 well round bottom tissue culture plate (3×10^4 DC/well). One plate was prepared per peptide. To all wells, 100 μL of the CD8+ enriched T cell population was added at 1.5×10^6 cells/mL was added, resulting in a final concentration of 1.5×10^5 T-cells/well. Plates were incubated at 37° C., 5% carbon dioxide, and high humidity.
On days 7 and 14, cryopreserved peptide pulsed mature DC were thawed and used to restimulate the T-cells. Cryopreserved samples of each peptide pulsed DC batch were removed from liquid nitrogen and thawed rapidly in a 37° C. water-bath. Samples were diluted at least 1:10 with AIM V medium (Invitrogen, Carlsbard, Calif.). Samples were washed twice by centrifugation at 400 g for 7 minutes, and representative samples were evaluated for cell concentration and viability. Each DC batch was diluted to 3×10^5 cells/mL in CTL complete medium containing 20 U/mL IL-2, 10 ng/mL IL-7, and 2 μg/mL of the specific peptide, and the DC were irradiated with 2800 Rads. In vitro stimulation plates were removed carefully from the incubator and 90 μL of supernatant (no cells) were removed from each well. To each well, 100 μL of the appropriate DC batch was added. Plates were then incubated further at 37° C., 5% carbon dioxide, and high humidity.
After the second in vitro stimulation, the plates were checked daily for T-cell proliferation. When required, plates were split (one plate will become two plates) to avoid overgrowth of the CTL. […] The plates were mixed to ensure a homogenous population, then 90 μL of each CTL well was transferred into a new 96 well U bottomed plate. When splitting was performed within 3 days of the last in vitro stimulation, 100 μL of CTL complete medium containing 20 U/mL IL-2 and 10 ng/mL IL-7 was added. If splitting was performed later than 3 days from the last in vitro stimulation, 100 μL of complete CTL medium containing 40 U/mL IL-2 and 20 ng/mL IL-7 was added. Split plates were returned to the incubator at 37° C., 5% carbon dioxide, and high humidity.
On day 21, the T cells were stimulated a fourth time. The process described for in vitro stimulations 2-3 was repeated with the exception that IL-2 was replaced with 25 ng/mL IL-15.
Stimulated CTL were assayed for staining using peptide-HLA-A2 dimers. Cells were collected 19 days after the third stimulation (subject 1) or 6 days after the fourth stimulation (subjects 1 and 2).

CD8+ T cells [2] = assay: IFN-γ ELISPOT of CTL stimulated with peptide-pulsed DC; format: cell-based, human; parameters: key to ELISPOT IFN-γ spots vs negative control: ++: Wells that clearly had more spots than the negative control were indicated as positive
Procedure: as §1, §2
as §3, with “use. […]” for “use.”
On days 7 and 14, cryopreserved peptide pulsed mature DC were thawed and used to restimulate the T-cells. […] Samples were washed twice by centrifugation at 400 g for 7 minutes, and representative samples were evaluated for cell concentration and viability. […]

HLA-A*0201 = HLA-A*0201 (Homo sapiens, UniProt P04439, D140Y/D185E/D98H/E176V/E277Q/G131W/G231S/I119V/I121R/I166T/I218V/L300P/L318F/N151K/N90K/P208A/P217A/Q86G/Q94H/R138H/R169H/T345S); assay: REVEAL MHC binding assay, HLA-A*0201; conditions: HLA-A*0201 binding, relative to positive control peptide
From the text: Fifty-five of the candidate peptides were assembled with HLA-A*0201 and analyzed for MHC binding to determine their level of incorporation into MHC molecules using the REVEAL™ MHC binding assay (ProImmune Ltd., Oxford, UK). Binding to MHC molecules was compared to that of two known T-cell epitopes: an intermediate control peptide and a positive control peptide with weak and very strong binding properties, respectively. Eleven peptides bound to HLA-A*0201 as well or better than the positive control, as indicated on Table 5.

% Positive Control (HLA-A*0201)	Substance	percentages of cells that stained positive (above background) for both dimer and CD8 (CD8+ T cells [1]; Subject 1, 3rd stim)	percentages of cells that stained positive (above background) for both dimer and CD8 (CD8+ T cells [1]; Subject 1, 4th stim)	percentages of cells that stained positive (above background) for both dimer and CD8 (CD8+ T cells [1]; Subject 2, 4th stim)	peptide dimer staining relative to background, in words (CD8+ T cells [1])	ELISPOT IFN-γ spots vs negative control (CD8+ T cells [2]; Subject 2, 4th stim)	ELISPOT result in words (CD8+ T cells [2]; subject 3 (so in the source))
	11 (YLQWIEFSI; listed as Homo sapiens) [compound 11]	38.64%	20.74%	19.39%	stained strongly above background	++	clearly positive
163.06%	19 (SQLNSNPEL; listed as Homo sapiens) [compound 19]						
	20 (GLLERVTRI; listed as Homo sapiens) [compound 20]	0.27%	−0.41%	−0.32%	indistinguishable from background		
	21 (FLLPALIFA; listed as Homo sapiens) [compound 21]	20.43%	13.23%	21.18%	stained strongly above background		
	28 (ILSAFSVYV; listed as Homo sapiens) [compound 28]	4.15%	0.12%	14.08%	stained moderately above background		
